Earlier results in patent publication US10449245B2 (priority 2014, dated 2019).

Tested on: HIV-specific T cells
Details: IMiD present during stimulation with dendritic cells presenting Gag- or Nef-specific peptides; cited from earlier work

| Compound | function of T-cells after in vitro stimulation |
| --- | --- |
| Nc1cccc2c1C(=O)N(C1CCC(=O)NC1=O)C2=O (centres unmarked) [pomalidomide] | a number of improvements in the function of the T-cells |
| Nc1cccc2c1CN(C1CCC(=O)NC1=O)C2=O (centres unmarked) [Lenalidomide] | a number of improvements in the function of the T-cells |
